From patent publication US20250179126A1, “A NOVEL PEPTIDE FROM A PHOTOSYNTHETIC BACERIUM DIRECTLY TARGETS MITOCHONDRIA TO TRIGGER APOPTOSIS IN ADVANCED PROSTATE CANCER CELLS” (priority 2022, published 2025)
“Also recorded” adds a separate entry of the source.

Columns and labels:
[1] = system: normal prostate CRL11611 cells; test: Annexin-V apoptosis assay by flow cytometry, normal prostate CRL11611; format: cell-based, human; conditions: normal CRL11611, 48 hr; Ptxl 1 nM, p28 50 μM, aurA/aurB 0.5-50 μM
Description: (§1) FIG. 7A-7D: Determination of apoptotic cell death. Prostate cancer cell lines (7A: LNCaP, 7B: DU145 and 7C: PC3) and normal prostate CRL11611 cells (7D) were exposed to the indicated agents for 48 hr and stained using apoptosis assay kits according to the manufacturer's instructions. The samples were analyzed by flow cytometry. Mean±SE (N=3).
(§2) After 48 hr, annexin-V apoptosis assays (Thermo Fisher Scientific) were conducted to detect apoptotic cells. At least 10,000 cells in each case were analyzed by FACS (RRC, UIC).

PC3 xenograft tumors = test: PC3 xenograft animal model; format: in vivo, athymic mice
From the text: FIG. 10A-10D: Inhibition of PC3 xenograft tumor growth. 10A, When the s.c. tumors reached ˜5 mm, athymic mice were randomized into control (PBS) and i.p. treatment groups. Mean±SE (N=5). *P<0.01. […] 10C, At the end of treatment, tumors were dissected and weighed. * P<0.01. 10D, In sections of tumors from the control group, there was a marked increase in Ki-67-positive proliferating cells (stained brown and counterstained with haematoxylin, ×40), and only a few apoptotic cells were observed, as determined by TUNEL and caspase-3 (Casp-3) staining. There was an apparent sharp reduction in Ki-67-positive proliferating cells and a higher number of TUNEL-positive apoptotic cells in the aurB-treated group compared to the control group. Similarly, Casp-3 expression in aurB-treated tumors was increased markedly compared with that in untreated controls.
Xenograft animal model: Human prostate cancer cells (PC3) were injected s.c. into the right flanks of 5- to 6-week-old male athymic mice 78. When tumors reached 5 mm in diameter, animals were randomized into control and treatment groups. […] All animals were weighed twice a week. At necropsy, tumors were dissected and weighed. Statistical comparisons were performed by one-way analysis of variance (ANOVA) (control vs treatment). Tumor samples were fixed overnight in 10% buffered formalin. Fixation was followed by dehydration, clearing and infiltration. Samples were then embedded in paraffin, and 4 μm sections were cut on a microtome. Ki67 (LabVision) staining was performed on the tissue sections using a Vector Vectastain Elite ABC Kit. The TUNEL assay was performed on the sections using a Millipore Sigma ApopTag® Peroxidase In Situ Apoptosis Detection Kit.

[2] = system: DU145 prostate cancer cells; test: MTT cell viability assay, DU145 prostate cancer cells; format: cell-based, human
[3] = molecular target: T1, mitochondrial ATP synthase gamma subunit (ATP5C) (Homo sapiens, UniProt P36542); test: Pull-down assay with biotin-labeled peptides and protein identification; format: binding; conditions: mitochondrial fraction of PC3 cells, biotin-labeled peptide, 16 hr at 4° C.
T1 construct: endogenous in cells; host or cells: PC3 human prostate cancer cells, mitochondrial fraction (detergent extract)
T1 sequence (P36542 26-298): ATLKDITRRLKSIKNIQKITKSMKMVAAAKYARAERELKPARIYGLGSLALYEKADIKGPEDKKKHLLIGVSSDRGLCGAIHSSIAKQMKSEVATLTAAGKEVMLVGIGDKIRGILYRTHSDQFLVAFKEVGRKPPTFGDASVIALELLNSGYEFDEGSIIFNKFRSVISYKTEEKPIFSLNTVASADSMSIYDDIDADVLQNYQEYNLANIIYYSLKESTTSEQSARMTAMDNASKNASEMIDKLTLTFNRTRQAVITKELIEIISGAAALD
From the text: 8A, TEM image of PC3 cells. Representative TEM micrograph of aurB-treated cells depicting the intraritochondrial localization of aurB-GNRs (arrowheads) and mitochondria](Mt) swelling. Scale bar: 600 nm. Mt: mitochondria. […] Coomassie-stained SDS-PAGE gels are shown (8B). The protein band at ˜35 kDa (arrowhead) was identified as ATP5C using mass spectrometry analysis. The identified fragments are indicated in green underlined sequence (SEQ ID NO: 4)(8C).
Pull-down assay and protein identification: PC3 cells were washed twice with PBS, and the mitochondrial fraction was prepared with a Qproteome mitochondria isolation kit (Qiagen). […] The peptides were then preincubated with streptavidin-agarose beads for 4 hr. After washing, the beads were boiled, and the released proteins were subjected to SDS-PAGE analysis. A protein band of ˜35 kDa was subjected to microcapillary LC/MS/MS for protein identification (Harvard Medical School, Taplin Mass Spectrometry Facility). For IB, proteins were transferred to nitrocellulose membranes. After blocking with 5% BSA in TBST, the membranes were incubated with anti-ATP5C antibody at 1:25,000 in 5% BSA/TBST (Abcam) for 16 hr at 4° C. The secondary antibody was applied (anti-goat IgG-HRP; Santa Cruz Biotechnology). The signal was detected using enhanced chemiluminescence (ECL).

DU145 cells = test: Annexin-V apoptosis assay by flow cytometry, DU145; format: cell-based, human; conditions: DU145, 48 hr; Ptxl 1 nM, p28 50 μM, aurA/aurB 0.5-50 μM
Description: as §1, §2

[4] = system: PC3 prostate cancer cells; test: MTT cell viability assay, PC3 prostate cancer cells; format: cell-based, human
PC3 cells = test: Cellular membrane toxicity, LDH leakage assay; format: cell-based, human; conditions: PC3, 0.2-200 μM, 37° C.
Description: FIG. 6A-6B: Cellular membrane toxicity assays. […] Cells treated with lysis buffer were defined as having 100% LDH release. Mean±SE (N=3).
Cellular membrane toxicity: LDH assays were performed as we previously described (Cha et al., Cancer Research 2020, 80: 1615-1623).

[5] = tumor sections, aurB 5 mg/kg daily i.p.

LVN GGD DVA AAV NTA AQN NAD ALF VPPP (LVNGGDDVAAAVNTAAQNNADALFVPPP) [aurB]
apoptotic cell death [1]: less extent | tumor weight (PC3 xenograft tumors; at end of treatment, aurB 5 mg/kg daily i.p.): significantly decreased tumor weight | tumor growth inhibition vs PBS control (PC3 xenograft tumors; end of treatment, four weeks i.p., aurB 5 mg/kg daily, Ptxl 10 mg/kg once a week): ~65% | antitumor effect on PC3 tumor growth (PC3 xenograft tumors; four weeks i.p., aurB 5 mg/kg daily, p28 10 mg/kg daily): significantly inhibited | behavioral change, body weight (PC3 xenograft tumors; four weeks of i.p. treatment): without inducing either a behavioral change or a loss in body weight | Ki-67-positive proliferating cells in tumors (PC3 xenograft tumors; [5]): substantially reduce the number of proliferating Ki-67-positive cells | TUNEL-positive apoptotic cells in tumors (PC3 xenograft tumors; [5]): number of apoptotic cells was increased | caspase-3-positive cancer cells in tumors (PC3 xenograft tumors; [5]): substantial increase in caspase-3-positive cancer cells | cytotoxic effect (MTT cell viability) ([2]; DU145 (p53-mutant, AR−), 24-72 hr, paclitaxel 1 nM): significantly induced dose-dependent cytotoxic effects; also recorded: more sensitive than the normal prostate cell line | inhibition rate ([2]; DU145, 100 μM for 72 hr): ~50% | anti-proliferative effect (MTT cell viability) ([2]; DU145, 5-100 μM, 24 hr): clear dose-dependent effects | binding to ATP5C (pull-down of ~35 kDa protein, IB) [3]: physically bound to ATP5C; also recorded: pulled down an endogenous protein | apoptotic cell death (DU145 cells): induced significant dose-dependent apoptosis | effect on p53-inactive cancer cells (MTT) ([4]; PC3 (p53-null), 0.1-100 μM, 24 hr): dose-dependent | cytotoxic effect (MTT cell viability) ([4]; PC3 (p53-null, AR−), 24-72 hr, paclitaxel 1 nM): significantly induced dose-dependent cytotoxic effects; also recorded: more sensitive than the normal prostate cell line | inhibition rate ([4]; PC3, 100 μM for 72 hr): ~50% | cellular membrane toxicity (LDH release) (PC3 cells): Neither aurA nor aurB induced cellular membrane toxicity at any concentrations
